Measurements taken from PMC8767159, “Multiparameter Optimization of Trypanocidal Cruzain Inhibitors With In Vivo Activity and Favorable Pharmacokinetics” (Frontiers in Pharmacology, 2022).
Where two headings read alike, the source gives them in different places.

Tests used:
T. cruzi (Y strain) = experiment: In vivo trypanocidal activity in mice infected with T. cruzi (Y strain); set-up: species or system Trypanosoma cruzi; conditions: for % reduction of peak parasitemia: vs vehicle
Protocol: Thirty-day-old female Swiss mice weighing 20–25 g and procured from the Center for the Development of Experimental Models for Medicine and Biology (CEDEME/UNIFESP) served as the subjects for these experiments. Animals were housed (5–6 per cage) in polypropylene cages and kept under controlled temperature (22–23°C) and humidity on a 12-h light/dark cycle (12 h light, 12 h dark; lights on at 6:30 am). Rodent chow and water were available ad libitum throughout the experiments. The Committee of Ethics in Research of the Universidade Federal de São Paulo approved all the experiments (CEUA n° 5301080816).
Treatment started on day five after infection with T. cruzi. The following parameters were evaluated in these experiments: level of parasitemia after the treatment, suppression of peak parasitemia (day seven after the infection), and reduction of parasitemia on the peak day (day seven after infection). Parasitemia was expressed as the number of T. cruzi trypomastigotes per 5 µl of blood and was calculated using the Brener method ([Brener, 1962]). […] On the seventh day of treatment, when parasitemia reached its peak, one-way ANOVA indicated a treatment effect (F3,16 = 7.47; p = 0.002). […] This dose-response effect is likely associated with the modulation of physiological systems that increase the susceptibility of the animals to infection with T. cruzi at high doses of the compound. […] The results of the in vivo studies indicate a moderate ability of 28 to suppress peak parasitemia at 150 mg/kg.

[1] = In vivo pharmacokinetics in male CD1 mice; set-up: species or system mouse; conditions: for CLpu: plasma clearance corrected for the fraction unbound; for clearance / C0 / AUC / half-life / Vd / Cmax / Tmax / bioavailability: male, CD1, mouse, 0.5 mg/kg, mice; for clearance: plasma clearance, read-out: CLp (L/h/kg) IV (converted); for C0 / AUC / half-life / Vd / Cmax / Tmax / bioavailability: plasma; for Vd: read-out: VSS (L/kg) IV; for bioavailability: oral bioavailability
Protocol: The in vivo pharmacokinetic profiles of the compounds were determined using male CD1 mice weighing […] ([Davies and Morris, 1993]; [Liu and Jia, 2007]). The compounds were administered in a single dose orally (0.5 mg/kg) and intravenously (0.5 mg/kg). Stock solutions of the compounds in DMSO were diluted in Tween 80, PEG-400, and D5W (5% dextrose in water) at a ratio of 2:5:20:73 (v/v). The injection volume was 10 ml/kg. The remaining plasma concentration was monitored over time by LC-MS/MS by collecting blood samples (40 μl) at 10, 25, and 50 min and 1, 3, 6, 9, 12, and 24 h after administration of the compound.
For the biotransformation experiments and analysis of metabolites in microsomes, an Ultra-High-Pressure Liquid Chromatography instrument (UHPLC, Thermo Accela, Waltham, MA) ([Spaggiari et al., 2014]) connected to an automatic sample injector and a 1250 series pump was used. The UHPLC system was connected to a Thermo Fisher (Waltham, MA) LTQ Orbitrap mass spectrometer. For all other analyses, an AB Sciex Triple Quad 5500 coupled to a UHPLC equipped with a UV 1290 diode detector (Agilent Technologies, Santa Clara, CA) and a CTC PAL self-collecting system (LEAP Technologies, Carrboro, NC) was used. Q1 MS positive ion mode (300–500 Da) was used to detect the ions of the parent compounds. The UV detector was operated in spectral mode (250–280 nm). A Hypersil Gold C18 (2.1 mm × 100 mm, 1.9 µm, Thermo Fisher) HPLC column was used. The mobile phases were solvent A (0.1% formic acid in water) and solvent B (0.1% formic acid in ACN). The flow was adjusted to 0.55 ml/min, and the injection volume was adjusted to […]. The gradient started with 1% solvent B for 0.4 min, reached 40% (solvent B) in 2.3 min and 95% (solvent B) in 0.67 min, was maintained for 0.5 min, and returned to the initial condition of 1%. This condition was maintained for 1 min before injection of the next sample. The peak area ratio (peak area of the test compounds/peak area of the control compounds) was converted to the percentage of remaining compound, with the 0 min time point ratio set to 100%. T½ and CLint were calculated from the percentage of remaining compound versus the incubation time. From the resulting function, the slope (k) was determined. The equations T1/2 (min) = ln(2)/k and CLint in vitro (μL/min/mg) = k*1000/0.25 were used to determine T½ and CLint.

[2] = Acute toxicity and open-field test in female Swiss mice; assay type: in vivo
Protocol: Thirty-day-old female Swiss mice weighing 20–25 g and procured from the Center for the Development of Experimental Models for Medicine and Biology (CEDEME/UNIFESP) served as the subjects for these experiments. […] Rodent chow and water were available ad libitum throughout the experiments.
The compound, solubilized in 10% DMSO aqueous solution, was administered orally in a single dose of 150 and 300 mg/kg of body weight in female Swiss mice. Parameters related to behavior, autonomic functions, neurological activity, and mortality were assessed as toxicity signs. Soon after the administration of the compound, mice were placed in a circular open-field arena (40 cm diameter) with 50-cm-high walls to assess motor deficits. […] After this period, toxicity signs were assessed once a day for two consecutive weeks. The reference drug BZ at 150 mg/kg and vehicle (10% DMSO) were administered as controls.

[3] = 150 mg/kg, gavage, five daily doses from day 5 after infection, day 7, female Swiss mice
[4] = Table 6, PO 0.5 mg/kg, male CD1 mice
[5] = Table S6, IV, read-out: AUC (ng*h/mL) IV
[6] = Table S6, IV, read-out: T1/2(h) IV (converted)
[7] = Table S6, PO, read-out: AUC (ng*h/mL) PO
[8] = Table S6, PO, read-out: T1/2 (h) PO (converted)
[9] = 300 mg/kg, gavage, five daily doses, day 7, female Swiss mice
[10] = single oral dose 150 and 300 mg/kg, 2 weeks of observation

| SMILES | % reduction of peak parasitemia (T. cruzi (Y strain); [3]) [%] | CLpu ([1]; Table S6) [mL/min/kg] | clearance ([1]; Table S6, IV) [L/h/kg] | C0 ([1]; Table S6, IV) [ng/mL] | AUC [1, 5] [ng·h/mL] | half-life [1, 6] [h] | Vd ([1]; Table S6, IV) [L/kg] | Cmax ([1]; Table S6, PO) [ng/mL] | Tmax ([1]; Table S6, PO) [min] | AUC [1, 7] [ng·h/mL] | half-life [1, 8] [h] | bioavailability ([1]; Table S6) [%] | further results |
| --- | --- | --- | --- | --- | --- | --- | --- | --- | --- | --- | --- | --- | --- |
| O=C(Cn1ccnc1[N+](=O)[O-])NCc1ccccc1 [BZ, benznidazole, reference compound] | 100 | 16.7 | 1 | 961 | 1020 | 0.8 | 1.1 | 404 | 24 | 1040 | 1.5 | 90 | AUC (ng*h/ml) PO [1, 4]: 1.040 ng·h/mL; T1/2 (h) PO [1, 4]: 1.5 h; CLpu ([1]; Table 6, IV): 16.7 mL/min/kg |
| NC(=O)Cn1c(CCNC(=O)COc2ccccc2)nc2ccccc21 [Compound 28] | 36.9 | 66.3 | 0.73 | 1930 | 1420 | 0.52 | 0.43 | 275 | 30.6 | 499 | 0.82 | 35 | reduction in parasitemia levels at lower doses (T. cruzi (Y strain); 75 mg/kg and 37.5 mg/kg, Supplementary Figure S10): no reduction; increase in the peak parasitemia compared with the vehicle (T. cruzi (Y strain); [9]): 13%; % reduction of peak parasitemia (T. cruzi (Y strain); [9]): -13%; Locomotor deficits (open-field test) ([2]; oral 150 and 300 mg/kg): did not cause locomotor deficits; Mortality [2, 10]: no mortality; Toxicity signs (behavior, autonomic functions, neurological activity) [2, 10]: No toxicity signs |
